Converted amounts (≈) assume the structure as drawn. Read-outs that look alike come from different tables or passages of the source.
What was measured:
[1] = tested on: M. suipneumoniae MS 16; test: MIC against Mycoplasma in vitro (agar); assay type: cell-based; conditions: Friis broth solidified with 0.9% agarose, 6 days at 37°C
[2] = tested on: E. coli E1; test: MIC against Veterinary Bacteria in vitro (agar dilution)
Experimental: (§1) The activity of the compounds of the Examples against various veterinarily important bacteria, was assayed in vitro using two-fold serial dilutions in Diagnostic Sensitivity Test Agar inoculated with 10^4 organisms.

[3] = tested on: Staph. aureus W2827; test: MIC against Human Bacteria in vitro (agar dilution); assay type: cell-based; conditions: agar with 5% chocolated horse blood, 18 hours at 37°C
[4] = tested on: Bord. bronchiseptica B09; test: MIC against Veterinary Bacteria in vitro (agar dilution)
Experimental: as §1

[5] = tested on: Erysipelothrix rhusiopathiae NCTC 8163; test: as above
Experimental: as §1

[6] = tested on: Strep. dysgalactiae SPD1; test: as above
Experimental: as §1

[7] = tested on: Strep. pyogenes B2788; test: MIC against Human Bacteria in vitro (agar dilution); assay type: cell-based; conditions: agar with 5% chocolated horse blood, 18 hours at 37°C
[8] = tested on: M. suipneumoniae Str. 11; test: MIC against Mycoplasma in vitro (agar); assay type: cell-based; conditions: Friis broth solidified with 0.9% agarose, 6 days at 37°C
[9] = tested on: M. suipneumoniae TAM 6N; test: MIC against Mycoplasma in vitro (agar); assay type: cell-based; conditions: Friis broth solidified with 0.9% agarose, 6 days at 37°C
[10] = tested on: M. suipneumoniae UCD 1; test: MIC against Mycoplasma in vitro (agar); assay type: cell-based; conditions: Friis broth solidified with 0.9% agarose, 6 days at 37°C
[11] = tested on: M. suipneumoniae LABER; test: MIC against Mycoplasma in vitro (agar); assay type: cell-based; conditions: Friis broth solidified with 0.9% agarose, 6 days at 37°C
[12] = tested on: Past. haemolytica PA5; test: MIC against Veterinary Bacteria in vitro (agar dilution)
Experimental: as §1

[13] = tested on: Strep. faecalis I; test: MIC against Human Bacteria in vitro (agar dilution); assay type: cell-based; conditions: agar with 5% chocolated horse blood, 18 hours at 37°C
[14] = tested on: Corynebacterium xerosis 9755; test: as above; assay type: cell-based; conditions: agar with 5% chocolated horse blood, 18 hours at 37°C
[15] = tested on: Sarcina lutea 8340; test: as above; assay type: cell-based; conditions: agar with 5% chocolated horse blood, 18 hours at 37°C
[16] = tested on: M. bovis NCTC 10131; test: microbe, parasite or virus in culture; assay type: cell-based
[17] = tested on: M. hyosynoviae ATCC 25591; test: MIC against Mycoplasma in vitro (agar); assay type: cell-based; conditions: Friis broth solidified with 0.9% agarose, 6 days at 37°C
[18] = tested on: E. coli NCTC 10418; test: MIC against Human Bacteria in vitro (agar dilution); assay type: cell-based; conditions: 18 hours at 37°C
[19] = tested on: Past. multocida PA2; test: MIC against Veterinary Bacteria in vitro (agar dilution)
Experimental: as §1

[20] = tested on: Bord. bronchiseptica B08; test: as above
Experimental: as §1

[21] = tested on: Past. multocida PA1; test: as above
Experimental: as §1

[22] = tested on: Staph. aureus B4 (pen. resistant); test: as above
Experimental: as §1

[23] = tested on: M. hyorhinis ATCC 25021; test: MIC against Mycoplasma in vitro (agar); assay type: cell-based; conditions: Friis broth solidified with 0.9% agarose, 6 days at 37°C
[24] = tested on: Strep. agalactiae SPA1; test: MIC against Veterinary Bacteria in vitro (agar dilution)
Experimental: as §1

[25] = tested on: S. typhimurium S18; test: as above
Experimental: as §1

[26] = tested on: Strep. pneumoniae CN33; test: MIC against Human Bacteria in vitro (agar dilution); assay type: cell-based; conditions: agar with 5% chocolated horse blood, 18 hours at 37°C
[27] = tested on: M. dispar NCTC 10125; test: MIC against Mycoplasma in vitro (agar); assay type: cell-based; conditions: Friis broth solidified with 0.9% agarose, 6 days at 37°C
[28] = tested on: E. coli ESS; test: MIC against Human Bacteria in vitro (agar dilution); assay type: cell-based; conditions: agar with 5% chocolated horse blood, 18 hours at 37°C
[29] = tested on: Staph. aureus 152 (pen. sens); test: MIC against Veterinary Bacteria in vitro (agar dilution)
Experimental: as §1

[30] = tested on: M. suipneumoniae NCTC 10110; test: MIC against Mycoplasma in vitro (agar); assay type: cell-based; conditions: Friis broth solidified with 0.9% agarose, 6 days at 37°C
[31] = tested on: M. gallisepticum S6; test: MIC against Mycoplasma in vitro (agar); assay type: cell-based; conditions: Friis broth solidified with 0.9% agarose, 6 days at 37°C
[32] = tested on: Neisseria catarrhalis 1502; test: MIC against Human Bacteria in vitro (agar dilution); assay type: cell-based; conditions: agar with 5% chocolated horse blood, 18 hours at 37°C
[33] = tested on: E. coli NCTC 10418; test: MIC against Veterinary Bacteria in vitro (agar dilution)
Experimental: as §1

[34] = tested on: M. suipneumoniae PW/C/210; test: MIC against Mycoplasma in vitro (agar); assay type: cell-based; conditions: Friis broth solidified with 0.9% agarose, 6 days at 37°C
[35] = tested on: M. suipneumoniae J2206/183^b; test: MIC against Mycoplasma in vitro (agar); assay type: cell-based; conditions: Friis broth solidified with 0.9% agarose, 6 days at 37°C
[36] = tested on: Staph. aureus Oxford; test: MIC against Human Bacteria in vitro (agar dilution); assay type: cell-based; conditions: agar with 5% chocolated horse blood, 18 hours at 37°C
[37] = tested on: M. suipneumoniae ATCC 25095; test: MIC against Mycoplasma in vitro (agar); assay type: cell-based; conditions: Friis broth solidified with 0.9% agarose, 6 days at 37°C
[38] = tested on: M. suipneumoniae NB12; test: MIC against Mycoplasma in vitro (agar); assay type: cell-based; conditions: Friis broth solidified with 0.9% agarose, 6 days at 37°C
[39] = tested on: Ps. aeruginosa NCTC 10662; test: MIC against Human Bacteria in vitro (agar dilution); assay type: cell-based; conditions: 18 hours at 37°C
[40] = tested on: S. dublin S7; test: MIC against Veterinary Bacteria in vitro (agar dilution)
Experimental: as §1

[41] = Staphylococcus aureus, read-out: MIC
[42] = Mesomycoplasma hyopneumoniae, 144 h, read-out: MIC
[43] = agar with 5% chocolated horse blood

CC(=CC(=O)OCCCCC=CCCC(=O)O)CC1OCC(CC2OC2C(C)C(C)O)C(O)C1O (centres unmarked) [Example 1, pseudomonic acid D]
MIC ([1]; Mesomycoplasma hyopneumoniae, MS16, 144 h, read-out: MIC): 2.5 µg/mL (≈ 5.01 µM)
MIC ([2]; Escherichia coli, E1, 18 h): > 20 µg/mL
MIC [3, 41]: 1 µg/mL (≈ 2.01 µM)
MIC ([4]; Bordetella bronchiseptica, B09, 18 h): 5 µg/mL (≈ 10 µM)
MIC ([5]; Erysipelothrix rhusiopathiae, NCTC8163, 18 h): 10 µg/mL (≈ 20.1 µM)
MIC ([6]; Streptococcus dysgalactiae, SPD1, 18 h): 0.156 µg/mL (≈ 0.313 µM)
MIC ([7]; Streptococcus pyogenes, read-out: MIC): 0.5 µg/mL (≈ 1 µM)
MIC [8, 42]: 1 µg/mL (≈ 2.01 µM)
MIC ([9]; Mesomycoplasma hyopneumoniae, TAM6N, 144 h, read-out: MIC): 5 µg/mL (≈ 10 µM)
MIC ([10]; Mesomycoplasma hyopneumoniae, UCD1, 144 h, read-out: MIC): 5 µg/mL (≈ 10 µM)
MIC [11, 42]: 2.5 µg/mL (≈ 5.01 µM)
MIC ([12]; Mannheimia haemolytica, PA5, 18 h): 2.5 µg/mL (≈ 5.01 µM)
MIC ([13]; Enterococcus faecalis, read-out: MIC): > 25 µg/mL
MIC ([14]; read-out: MIC): > 25 µg/mL
MIC ([15]; Micrococcus luteus, read-out: MIC): > 25 µg/mL
MIC ([16]; NCTC10131, 144 h): 0.05 µg/mL (≈ 0.1 µM)
MIC ([17]; 144 h, read-out: MIC): 0.5 µg/mL (≈ 1 µM)
MIC ([18]; Escherichia coli, NCTC10418, agar with 5% chocolated horse blood, read-out: MIC): > 25 µg/mL
MIC ([19]; Pasteurella multocida, PA2, 18 h): < 0.019 µg/mL
MIC ([20]; Bordetella bronchiseptica, B08, 18 h): 10 µg/mL (≈ 20.1 µM)
MIC ([21]; Pasteurella multocida, PA1, 18 h): 0.156 µg/mL (≈ 0.313 µM)
MIC ([22]; Staphylococcus aureus, 18 h): 0.312 µg/mL (≈ 0.626 µM)
MIC ([23]; Mesomycoplasma hyorhinis, ATCC25021, 144 h, read-out: MIC): 1 µg/mL (≈ 2.01 µM)
MIC ([24]; Streptococcus agalactiae, SPA1, 18 h): 0.625 µg/mL (≈ 1.25 µM)
MIC ([25]; Salmonella enterica, TYPHIMURIUM, 18 h): > 20 µg/mL
MIC ([26]; Streptococcus pneumoniae, read-out: MIC): 0.25 µg/mL (≈ 0.501 µM)
MIC ([27]; 144 h, read-out: MIC): 2.5 µg/mL (≈ 5.01 µM)
MIC ([28]; Escherichia coli, read-out: MIC): 1 µg/mL (≈ 2.01 µM)
MIC ([29]; Staphylococcus aureus, 18 h): 0.312 µg/mL (≈ 0.626 µM)
MIC ([30]; Mesomycoplasma hyopneumoniae, NCTC10110, 144 h, read-out: MIC): 5 µg/mL (≈ 10 µM)
MIC ([31]; Mycoplasmoides gallisepticum, 144 h, read-out: MIC): > 10 µg/mL
MIC ([32]; read-out: MIC): 0.5 µg/mL (≈ 1 µM)
MIC ([33]; Escherichia coli, NCTC10418, 18 h): > 20 µg/mL
MIC [34, 42]: 1 µg/mL (≈ 2.01 µM)
MIC [35, 42]: 2.5 µg/mL (≈ 5.01 µM)
MIC [36, 41]: 1 µg/mL (≈ 2.01 µM)
MIC ([37]; Mesomycoplasma hyopneumoniae, ATCC25095, 144 h, read-out: MIC): 1 µg/mL (≈ 2.01 µM)
MIC [38, 42]: 1 µg/mL (≈ 2.01 µM)
MIC ([39]; Pseudomonas aeruginosa, NCTC10662, agar with 5% chocolated horse blood, read-out: MIC): > 25 µg/mL
MIC ([40]; Salmonella enterica, S7, 18 h): > 20 µg/mL

Methyl pseudomonate D [Example 2]
MIC [1]: 2.5 µg/mL
MIC ([2]; E. coli E1, Diagnostic Sensitivity Test Agar, 18 hours at 37°C): 40 µg/mL
MIC [3]: 1.0 µg/mL
MIC ([4]; Bord. bronchiseptica B09, Diagnostic Sensitivity Test Agar, 18 hours at 37°C): 10 µg/mL
MIC ([5]; Erysipelothrix rhusiopathiae NCTC 8163, Diagnostic Sensitivity Test Agar, 18 hours at 37°C): 20 µg/mL
MIC ([6]; Strep. dysgalactiae SPD1, Diagnostic Sensitivity Test Agar, 18 hours at 37°C): 0.156 µg/mL
MIC [7]: 2.5 µg/mL
MIC [8]: 2.5 µg/mL
MIC [9]: 10 µg/mL
MIC [10]: 5.0 µg/mL
MIC [11]: 2.5 µg/mL
MIC ([12]; Past. haemolytica PA5, Diagnostic Sensitivity Test Agar, 18 hours at 37°C): 1.25 µg/mL
MIC [13]: >100 µg/mL
MIC [14]: >100 µg/mL
MIC [15]: >100 µg/mL
MIC ([16]; M. bovis NCTC 10131, Friis broth solidified with 0.9% agarose, 6 days at 37°C): 0.05 µg/mL
MIC [17]: 0.5 µg/mL
MIC [18, 43]: >100 µg/mL
MIC ([19]; Past. multocida PA2, Diagnostic Sensitivity Test Agar, 18 hours at 37°C): 2.5 µg/mL
MIC ([20]; Bord. bronchiseptica B08, Diagnostic Sensitivity Test Agar, 18 hours at 37°C): 40 µg/mL
MIC ([21]; Past. multocida PA1, Diagnostic Sensitivity Test Agar, 18 hours at 37°C): 10 µg/mL
MIC ([22]; Staph. aureus B4 (pen. resistant), Diagnostic Sensitivity Test Agar, 18 hours at 37°C): 80 µg/mL
MIC [23]: 1.0 µg/mL
MIC ([24]; Strep. agalactiae SPA1, Diagnostic Sensitivity Test Agar, 18 hours at 37°C): 0.312 µg/mL
MIC ([25]; S. typhimurium S18, Diagnostic Sensitivity Test Agar, 18 hours at 37°C): 80 µg/mL
MIC [26]: 2.5 µg/mL
MIC [27]: 1.0 µg/mL
MIC [28]: 1.0 µg/mL
MIC ([29]; Staph. aureus 152 (pen. sens), Diagnostic Sensitivity Test Agar, 18 hours at 37°C): 0.625 µg/mL
MIC [30]: 5.0 µg/mL
MIC [31]: >10 µg/mL
MIC [32]: 0.5 µg/mL
MIC ([33]; E. coli NCTC 10418, Diagnostic Sensitivity Test Agar, 18 hours at 37°C): 40 µg/mL
MIC [34]: 2.5 µg/mL
MIC [35]: 5.0 µg/mL
MIC [36]: 0.5 µg/mL
MIC [37]: 2.5 µg/mL
MIC [38]: 5.0 µg/mL
MIC [39, 43]: >100 µg/mL
MIC ([40]; S. dublin S7, Diagnostic Sensitivity Test Agar, 18 hours at 37°C): 80 µg/mL

From patent EP0068680A1, “Antibiotics” (BEECHAM GROUP PLC, priority 1981, dated 1983)
